Each structure is given as a SMILES string.

The subject of the assay is P. falciparum 3D7 growth, pLDH absorbance. Briefly: P. falciparum 3D7 growth inhibition, dose response, strain 3D7 (AID 2305).

Usually IC50 stands for the point on the concentration scale where inhibition reaches its midpoint. The molecule `COc1ccc(CC(C)NCC(O)c2cccc(C(F)(F)F)c2)cc1` (stereo not given) displayed an IC50 of 1580 nM. That is a single-digit micromolar value.

In turn, `CCCc1cc(NC2CCN(C)CC2)nc(Nc2cccc(OC)c2)n1` gave an IC50 of 770 nM. Against the preceding molecule, the IC50 is about 2.1-fold lower.

Turning to `Cc1ccc(NC(=O)Nc2ccc(Cn3ncc(N4CCCNCC4)c(Cl)c3=O)cc2)cc1`, the IC50 stood at 920 nM.

With `CCCCNC[C@@H](O)[C@H](Cc1ccccc1)NC(=O)c1cc2c3c(c1)c(CC)cn3CCS(=O)(=O)N2C`, the IC50 is 200 nM.

In turn, `CN1CC[C@@H](Oc2cc(C(=O)NCc3ccc(Cl)c(Cl)c3)ccc2C(F)(F)F)C1` came in with an IC50 of 1250 nM.

Turning to `CCN(CC)CCCC(C)Nc1ccnc2[nH]c3ccccc3c12` (stereo not given), the IC50 is 1770 nM. This IC50 and that of the molecule before are within 1.5-fold of each other.

Consider `COc1ccc2nccc([C@@H](O)CN3CCC(NC(=O)c4ccc(Cl)c(OC)c4)CC3)c2c1`, for which the concentration for half-maximal inhibition (IC50) is 790 nM.

Consider `COc1ccc(Nc2nccc(-c3ccc(NC(=O)c4cc5cc(F)ccc5[nH]4)cc3)n2)cc1`, for which the IC50 came to 630 nM.

As for `O=C(NCCN1CCC(c2ncc(-c3ccccc3)o2)CC1)c1ccc(NC(=O)c2ccc(Cl)cc2)cc1`, the IC50 worked out at 240 nM.

The molecule `CN(C)C(CNC(=O)c1cc(-c2ccncc2)c(-c2ccc(NC(=O)Nc3ccccc3)cc2)o1)c1ccccc1` (stereo not given) registered an IC50 of 600 nM. Against the preceding molecule, the IC50 is about 2.5-fold higher.

Take `CCCN1CCC(c2c[nH]c3ccc(NC(=O)Nc4cccc(Cl)c4Cl)cc23)CC1`: the IC50 was 810 nM.

In the case of `COc1cc2nc(Nc3ccc(N4CCOCC4)cc3)nc(N)c2cc1OC`, the IC50 is 870 nM.

As for `CC(CN(C)C)C(=O)Nc1ccc(-c2ccc(-c3nc4ccc(C(F)(F)F)cc4[nH]3)cc2)cc1` (stereo not given), the IC50 is 750 nM.

The molecule `COc1ccc2nc(-c3ccccc3)cc(NN=Cc3ccc([N+](=O)[O-])o3)c2c1` yielded a half-inhibitory concentration (IC50) of 200 nM.

With `COc1ccc(CCN2CCC(CN(C)Cc3cnn(-c4ccccc4)c3)CC2)cc1`, the IC50 turned out to be 1160 nM.

`Cc1c2ccncc2c(C)c2c1[nH]c1ccccc12` came in with an IC50 of 800 nM.

Take `CCN1C(=O)N(CCC(C)C)C2(CCN(Cc3ccc(OC)cc3O)CC2)C1=O`: the IC50 came to 870 nM.

Molecule `Cc1cccc2[nH]c(-c3ccc(-c4ccc(NC(=O)Nc5ccc(F)c(F)c5F)cc4)s3)nc12` displayed an IC50 of 180 nM. This IC50 is about 4.8-fold lower than that of the molecule before.

`O=C(CN1CCCC1)Nc1cccc(C(=O)Nc2cccc(C(F)(F)F)c2)c1` had an IC50 of 510 nM.

`Cc1ccccc1C1CCN(C2CCC(NC(=O)c3cc(-c4ccccc4)oc3C)CC2)CC1` (stereo not given) displayed an IC50 of 1030 nM.

The molecule `CN1CCC(NCc2cccc(-c3cnc(NCc4ccccc4)nc3)c2)CC1` gave an IC50 of 970 nM. This IC50 and that of the molecule before are within 1.5-fold of each other.

Molecule `CC(C)C(C(=O)Nc1ccc(S(=O)(=O)N(C)C)cc1)c1ccc(Cl)cc1` (stereo not given) returned an IC50 of 940 nM.

As to `NCC1CCCN1Cc1cccc(-c2cccc(-c3nc4ccc(F)cc4[nH]3)c2)c1` (stereo not given), the IC50 turned out to be 810 nM.

Molecule `O=C(C=Cc1ccc(Cl)c(Cl)c1)NCCCCCN1CCC(CCNC(=O)C(c2ccccc2)c2ccccc2)CC1` returned a concentration for half-maximal inhibition (IC50) of 1010 nM.

As to `c1ccc(CNc2nc(NCCc3cnc[nH]3)nc(NCc3cccc4ccccc34)n2)cc1`, the IC50 is 1110 nM.

Molecule `CCCCn1c(C(C)Oc2ccc(Cl)cc2Cl)nc2cc(S(N)(=O)=O)ccc21` (stereo not given) gave an IC50 of 710 nM.

As to `COC(=O)c1ccc(C[C@@H](C)NC[C@H](O)c2cccc(OCc3ccccc3)c2)cc1`, the IC50 came out at 1160 nM.

Molecule `C=CCn1c(=N)c(C(=O)NCc2ccc(F)cc2)cc2c(=O)n3cccc(C)c3nc21` came in with an IC50 of 1170 nM.

In turn, `CCN1CCN(c2cc(C)c3cc(NC(=O)c4cccc(C(F)(F)F)c4)ccc3n2)CC1` displayed an IC50 of 570 nM.

`N#CCCN1CCN(Cc2ccc(-c3cccc(-c4nc5ccc(F)cc5[nH]4)c3)cc2)CC1` came in with an IC50 of 970 nM. Against the preceding molecule, the IC50 is about 1.7-fold higher.

On to `Oc1cccc(Nc2nc(NCc3ccco3)c3ccccc3n2)c1`, for which the half-inhibitory concentration (IC50) amounted to 410 nM.

`CCCCc1ccc(S(=O)(=O)Nc2ccc3c(c2)CCN(Cc2c[nH]c4cnccc24)CC3)cc1`: the IC50 was 670 nM. This IC50 is about 1.6-fold higher than that of the molecule before.

Molecule `CCCCCCn1c(Sc2ccc(C#N)c([N+](=O)[O-])c2)nnc1-c1cccs1` returned an IC50 of 710 nM. This IC50 and that of the molecule before are within 1.5-fold of each other.

In the case of `O=C(Nc1ccc(SC(F)(F)F)cc1)Nc1ccnc2ccccc12`, the IC50 was determined as 750 nM.

Turning to `NC(N)=Nc1ccc(Cc2ccc(N=C(N)N)cc2)cc1`, the IC50 amounted to 260 nM. Compared with the last molecule, the IC50 is about 2.9-fold lower.

The record behind these values is PubChem BioAssay AID2305 (GlaxoSmithKline (GSK), 2010).
